Test results published in patent US20150344822A1, “Decontaminant and Process for Decontamination of Chemicals from Infrastructural Materials” (priority 2014, published 2015).
“And” between values parts separate entries of the source, which are not always exact repeats. Equal values may be shown once. Read-outs that look alike come from different tables or passages of the source.

Columns and labels:
[1] = Task 2: efficacy of decontamination agents (extraction and subsequent rinses); conditions: for Aqueous concentration of mercury, Extraction: extractant hypochlorite (300 mg/L), mercury input 19530.00 mg/L, adhered 7 days, 20-25° C.
Source text: The pipe materials used for subtask 2 were DIE, DIW, PVC and copper. […] Types of interactions included scrubbing, flushing, recirculation, shaking and static equilibrium.
After equilibration, the contaminant was extracted using the various decontamination agents. […] Surfactant molecules have both hydrophilic and hydrophobic parts, and the most attractive place for them in water is at the surface where the forces of both attraction and repulsion to water can be satisfied. […] The aqueous solutions of these decontaminants were prepared using the available chemical decontaminants and diluting them to required concentration by adding DI water. Appropriate volume corrections were conducted for NaOCl considering available solution concentration of NaOCl received from the supplier.
(§1) The sample was introduced via a peristaltic pump by pneumatic nebulization into radio frequency plasma where energy transfer processes cause desolvation, atomization, and ionization. The ions were extracted from the plasma through a pumped vacuum interface and separated on the basis of their mass-to-charge ratio by a quadrupole mass spectrometer. The ions transmitted through the quadrupole were registered by a continuous dynode electron multiplier and the ion information was processed by a data handling system.

[2] = product as supplied; cited from earlier work
[3] = Task 1A: surface adherence of contaminants on pipe materials, 7 days at 20-25° C.; type: physicochemical; conditions: comparison of Tasks 1A, 1B, 1C
[4] = Task 1: removal of adhered chemicals by three de-ionized water rinses and extractant; conditions: for Aqueous concentration of mercury, Extraction: adherence at 4-6° C.; for Aqueous concentration, Extractant: after 24 hours; for Aqueous concentration, Extractant / Aqueous concentration of mercury, Extractant: 20-25° C.; for Aqueous concentration of mercury, Extractant: after 7 days, initial 22829.8 mg/L, extractant = chemical decontaminant of the present disclosure
Description: In Task 1, the pipes were rinsed immediately after the equilibrated solution was transferred into the analytical sample vials. Thereafter, de-ionized water at room temperature was used for rinsing the pipes. Three consecutive rinses were conducted using de-ionized water at room temperature. In case of aged black iron pipe, the aqueous solution was centrifuged before transferring to the sample vials to avoid entrainment of colloidal corroded iron particles in the solution. During the extraction step, the pipes were about half filled with the extraction solution and wrapped tightly. The 4″ diameter pipes were filled with 150 mL of extraction solution. The copper, PVC, and HDPE pipes were filled with 55 mL of extraction solution, while the epoxy and the aged metal pipes were filled with 85 mL of extraction solution. […] After shaking for 1 hour, the pipes were flipped in order to get contact with the entire inner surface of the pipe. The extraction solutions were transferred to the appropriate sample vial.
as §1
In this table, m0 and mi are the initial and final amounts of chemical in water.
Water rinse was done to remove the weakly-bound chemicals, while the strongly-bound chemicals, if any, were extracted with stronger solvents.

[5] = cited from earlier work
[6] = tested on: rat; conditions: oral (rat); cited from earlier work
[7] = hazardous ingredient of the product; cited from earlier work

OCl [Sodium Hypochlorite, Sodium hypochlorite]
Aqueous concentration of mercury, Extraction ([1]; COP (copper) pipe, listed as Hypochlorite): 11.01 mg/L and 8.48 mg/L
Aqueous concentration of mercury, Extraction ([1]; COP (copper) pipe, listed as hypochlorite): 8.5 mg/L and 11 mg/L
Aqueous concentration of mercury, Extraction ([1]; DIE pipe): 133.91 mg/L and 136.16 mg/L
Aqueous concentration of mercury, Extraction ([1]; DIW pipe, listed as Hypochlorite): 251.05 mg/L and 315.47 mg/L
Aqueous concentration of mercury, Extraction ([1]; DIW pipe, listed as hypochlorite): 251 mg/L and 315 mg/L
Aqueous concentration of mercury, Extraction ([1]; PVC pipe): 290.19 mg/L and 172.41 mg/L
effectiveness in releasing / removing adhered mercury ([1]; mercury adhered on DIW and copper pipes): not effective
removal / recovery of contaminants compared with the other decontaminants tested ([1]; mercury and organophosphates, solid surfaces): significantly less
pH [2]: ~13

O=C(O)CF [fluoroacetate]
Adhesion coefficients under 7 days and room temperature condition versus 24 hours or low temperature conditions [3]: generally higher

Mercuric chloride [Mercury]
Aqueous concentration of mercury, Extraction ([4]; Copper pipe, Mercury #1, initial 7737.5 mg/L): 515.7 mg/L and 272.8 mg/L
Aqueous concentration, Extractant ([4]; Copper pipe, Mercury #1, initial 8171.5 mg/L): 702.4 mg/L and 559.3 mg/L
Aqueous concentration, Extractant ([4]; Copper pipe, Mercury #2, initial 23950.0 mg/L): 1820.0 mg/L and 2140.0 mg/L
Aqueous concentration of mercury, Extraction ([4]; Copper pipe, Mercury #2, initial 28800.0 mg/L): 2930.0 mg/L and 2800.0 mg/L
Aqueous concentration of mercury, Extractant ([4]; Copper pipe): 7368.1 mg/L and 6413.5 mg/L
Aqueous concentration of mercury, Extractant ([4]; DIE pipe): 187.6 mg/L and 179.1 mg/L
Aqueous concentration of mercury, Extractant ([4]; DIO pipe): 9532.2 mg/L and 7156.1 mg/L
Aqueous concentration, Extractant ([4]; DIW pipe, Mercury #1, initial 8171.5 mg/L): 684.6 mg/L and 914.1 mg/L
Aqueous concentration of mercury, Extraction ([4]; DIW pipe, Mercury #2, initial 28800.0 mg/L): 1520.0 mg/L and 2290.0 mg/L
Aqueous concentration of mercury, Extractant ([4]; HDPE pipe): 0.3 mg/L and 0.5 mg/L
Aqueous concentration of mercury, Extraction ([4]; PVC pipe, Mercury #1, initial 7737.5 mg/L): 1.6 mg/L and 2.6 mg/L

COP(=O)(OC)OC=C(Cl)Cl [Dichlorvos]
Hydrolysis ([5]; at pH 4): slow
Hydrolysis ([5]; at pH 9): rapid
Half-life ([5]; between pH 4 and pH 9): 20 to 80 h
LD50 [6]: LD50 oral (rat) 56 to 80 mg/kg

COP(=O)(OC)O/C(C)=C/C(=O)N(C)C [Dicrotophos]
time after which decomposed ([5]; at 75° C.): 31 days
time after which decomposed ([5]; at 90° C.): 7 days
storage stability ([5]; stored in glass or polythene containers up to 40° C.): stable
LD50 [6]: Oral LD50 for rats is 16- 21 mg/kg.

CCCCOCCO [Butyl cellosolve]
PEL [7]: 25 mg/L
TLV [7]: 25 mg/L
